Calls of active or inactive are those of the source.
Legend:
Mus musculus [1] = species: Mus musculus; settings: Swiss, 5 mg/kg
Description: Inhibition of carrageenan-induced PGE2 production in Swiss mouse at 5 mg/kg, po dosed 45 mins before carrageenan dosing measured 3 hrs post carrageenan challenge by ELISA

Mus musculus [2] = experiment: Antinociceptive activity in Swiss mouse inflammatory pain model assessed as reduction in mechanical hyperalgesia at 2 mg/kg, sc dosed 45 mins before complete Freund's adjuvant dosing measured 4 to 24 hrs post complete Freund's adjuvant challenge by electronic pressure-meter test; assay type: functional, organism-based; set-up: dose 2 mg/kg
Mus musculus [3] = experiment: Antinociceptive activity in Swiss mouse inflammatory pain model assessed as reduction in paw withdrawal response at 2 mg/kg, sc dosed once daily for 7 days dosed 45 mins before complete Freund's adjuvant dosing measured post complete Freund's adjuvant challenge; assay type: functional, organism-based; set-up: dose 2 mg/kg
Mus musculus [4] = experiment: Antinociceptive activity in Swiss mouse inflammatory pain model assessed as reduction in paw edema at 2 mg/kg, sc dosed once daily for 7 days dosed 45 mins before complete Freund's adjuvant dosing measured post complete Freund's adjuvant challenge; assay type: functional, organism-based; set-up: dose 2 mg/kg
Mus musculus [5] = experiment: Antinociceptive activity in Swiss mouse inflammatory pain model assessed as reduction in hyperalgesia at 0.5 mg/kg, sc dosed once daily for 7 days dosed 45 mins before carrageenan dosing measured 3 hrs post carrageenan challenge; assay type: functional, organism-based; set-up: dose 0.5 mg/kg
Mus musculus [6] = experiment: Inhibition of complete Freund's adjuvant-induced IL-1beta production in Swiss mouse at 2 mg/kg, sc dosed 45 mins before complete Freund's adjuvant dosing measured up to 24 hrs post complete Freund's adjuvant challenge by ELISA; assay type: functional, organism-based; set-up: dose 2 mg/kg
Mus musculus [7] = experiment: Inhibition of complete Freund's adjuvant-induced TNFalpha production in Swiss mouse at 2 mg/kg, sc dosed 45 mins before complete Freund's adjuvant dosing measured up to 2 hrs post complete Freund's adjuvant challenge by ELISA; assay type: functional, organism-based; set-up: dose 2 mg/kg
Mus musculus [8] = experiment: Inhibition of complete Freund's adjuvant-induced neutrophil migration to paw tissue in Swiss mouse at 2 mg/kg, sc dosed 45 mins before complete Freund's adjuvant dosing measured 3 to 4 hrs post complete Freund's adjuvant challenge by myeloperoxidase kinetic colorimetric assay; assay type: functional, organism-based; set-up: dose 2 mg/kg
Mus musculus [9] = experiment: Inhibition of carrageenan-induced neutrophil migration to paw tissue in Swiss mouse at 2 mg/kg, sc dosed 45 mins before carrageenan dosing measured 3 to 4 hrs post […] challenge by myeloperoxidase kinetic colorimetric assay; assay type: functional, organism-based; set-up: dose 2 mg/kg
Mus musculus [10] = experiment: Antinociceptive activity in Swiss mouse inflammatory pain model assessed as reduction in hyperalgesia at 160 ug/paw dosed 45 mins before PGE2 dosing measured 3 hrs post PGE2 challenge; assay type: functional, organism-based
Mus musculus [11] = experiment: Gastric toxicity in Swiss mouse assessed as inflammatory cell index at 10 mg/kg administered as single dose (reference value: 0.2 +/- 0.2 inflammatory cell index); assay type: organism-based; set-up: dose 10 mg/kg; settings: in vivo
Mus musculus [12] = experiment: Gastric toxicity in Swiss mouse assessed as erosion index at 10 mg/kg administered as single dose (reference value: 0 +/- 0 erosion index); assay type: organism-based; set-up: dose 10 mg/kg; settings: in vivo
Mus musculus [13] = experiment: Gastric toxicity in Swiss mouse assessed as edema index at 10 mg/kg administered as single dose (reference value: 0.6 +/- 0.2 edema index); assay type: organism-based; set-up: dose 10 mg/kg; settings: in vivo
Mus musculus [14] = experiment: Gastric toxicity in Swiss mouse assessed as necrosis index at 10 mg/kg administered as single dose (reference value: 0 +/- 0 necrosis index); assay type: organism-based; set-up: dose 10 mg/kg; settings: in vivo
Mus musculus [15] = experiment: Effect on baseline nociceptive threshold in Swiss mouse inflammatory pain model at 30 to 120 mg/kg, po dosed 45 mins before complete Freund's adjuvant dosing measured 4 to 24 hrs post complete Freund's adjuvant challenge by electronic pressure-meter test; assay type: functional, organism-based
Mus musculus [16] = experiment: Antinociceptive activity in Swiss mouse inflammatory pain model assessed as reduction in mechanical hyperalgesia at 30 to 120 mg/kg, po dosed 45 mins before complete Freund's adjuvant dosing measured 2 hrs post complete Freund's adjuvant challenge by electronic pressure-meter test; assay type: functional, organism-based
Mus musculus [17] = experiment: Antinociceptive activity in Swiss mouse inflammatory pain model assessed as reduction in mechanical hyperalgesia at 30 to 120 mg/kg, po dosed 45 mins before complete Freund's adjuvant dosing measured 6 hrs post complete Freund's adjuvant challenge by electronic pressure-meter test; assay type: functional, organism-based
Mus musculus [18] = experiment: Antinociceptive activity in Swiss mouse inflammatory pain model assessed as reduction in mechanical hyperalgesia at 30 to 120 mg/kg, po dosed 45 mins before complete Freund's adjuvant dosing measured 24 hrs post complete Freund's adjuvant challenge by electronic pressure-meter test; assay type: functional, organism-based
Mus musculus [19] = experiment: Antinociceptive activity in Swiss mouse inflammatory pain model assessed as reduction in paw withdrawal response at 60 mg/kg, po dosed once daily for 7 days dosed 45 mins before complete Freund's adjuvant dosing measured post complete Freund's adjuvant challenge; assay type: functional, organism-based; set-up: dose 60 mg/kg
Mus musculus [20] = experiment: Antinociceptive activity in Swiss mouse inflammatory pain model assessed as reduction in paw withdrawal response at 60 mg/kg, po dosed once daily for 7 days dosed 45 mins before complete Freund's adjuvant dosing measured 2 days post compound withdrawal; assay type: functional, organism-based; set-up: dose 60 mg/kg
Mus musculus [21] = experiment: Antinociceptive activity in Swiss mouse inflammatory pain model assessed as reduction in paw edema at 60 mg/kg, po dosed once daily for 7 days dosed 45 mins before complete Freund's adjuvant dosing measured post complete Freund's adjuvant challenge; assay type: functional, organism-based; set-up: dose 60 mg/kg
Mus musculus [22] = experiment: Antinociceptive activity in Swiss mouse inflammatory pain model assessed as reduction in hyperalgesia at 60 mg/kg, po dosed once daily for 7 days dosed 45 mins before carrageenan dosing measured 3 hrs post carrageenan challenge; assay type: functional, organism-based; set-up: dose 60 mg/kg
Mus musculus [23] = experiment: Antinociceptive activity in Swiss mouse inflammatory pain model assessed as reduction in hyperalgesia at 60 mg/kg, po dosed once daily for 7 days dosed 45 mins before PGE2 dosing measured 3 hrs post PGE2 challenge; assay type: functional, organism-based; set-up: dose 60 mg/kg
Mus musculus [24] = experiment: Antinociceptive activity in Swiss mouse inflammatory pain model assessed as reduction in hyperalgesia at 120 mg/kg, po dosed once daily for 7 days dosed 45 mins before PGE2 dosing measured 3 hrs post PGE2 challenge; assay type: functional, organism-based; set-up: dose 120 mg/kg
Mus musculus [25] = experiment: Inhibition of complete Freund's adjuvant-induced IL-1beta production in Swiss mouse at 60 mg/kg, po dosed 45 mins before complete Freund's adjuvant dosing measured up to 24 hrs post complete Freund's adjuvant challenge by ELISA; assay type: functional, organism-based; set-up: dose 60 mg/kg
Mus musculus [26] = experiment: Inhibition of complete Freund's adjuvant-induced TNFalpha production in Swiss mouse at 60 mg/kg, po dosed 45 mins before complete Freund's adjuvant dosing measured up to 2 hrs post complete Freund's adjuvant challenge by ELISA; assay type: functional, organism-based; set-up: dose 60 mg/kg
Mus musculus [27] = experiment: Inhibition of carrageenan-induced PGE2 production in Swiss mouse at 60 mg/kg, po dosed 45 mins before carrageenan dosing measured 3 hrs post carrageenan challenge by ELISA; assay type: functional, organism-based; set-up: dose 60 mg/kg
Mus musculus [28] = experiment: Inhibition of complete Freund's adjuvant-induced neutrophil migration to paw tissue in Swiss mouse at 60 mg/kg, po dosed 45 mins before complete Freund's adjuvant dosing measured 3 to 4 hrs post complete Freund's adjuvant challenge by myeloperoxidase kinetic colorimetric assay; assay type: functional, organism-based; set-up: dose 60 mg/kg
Mus musculus [29] = experiment: Inhibition of carrageenan-induced neutrophil migration to paw tissue in Swiss mouse at 60 mg/kg, po dosed 45 mins before carrageenan dosing measured 3 to 4 hrs post […] challenge by myeloperoxidase kinetic colorimetric assay; assay type: functional, organism-based; set-up: dose 60 mg/kg
Mus musculus [30] = experiment: Toxicity in Swiss mouse assessed as corporal mass changes at 60 mg/kg, po dosed once daily for 7 days (reference value: 0.58 +/- 0.03 g); assay type: organism-based; set-up: dose 60 mg/kg, route oral; settings: in vivo, 168 h
Mus musculus [31] = experiment: Toxicity in Swiss mouse assessed as liver weight changes per 10 gram of body weight at 60 mg/kg, po dosed once daily for 7 days (reference value: 0.73 +/- 0.07 g/10 g body weight); assay type: organism-based; set-up: dose 60 mg/kg, route oral; settings: in vivo, 168 h
Mus musculus [32] = experiment: Toxicity in Swiss mouse assessed as kidney weight changes per 10 gram of body weight at 60 mg/kg, po dosed once daily for 7 days (reference value: 0.06 +/- 0.00 g/10 g body weight); assay type: organism-based; set-up: dose 60 mg/kg, route oral; settings: in vivo, 168 h
Mus musculus [33] = experiment: Toxicity in Swiss mouse assessed as heart weight changes per 10 gram of body weight at 60 mg/kg, po dosed once daily for 7 days (reference value: 0.05 +/- 0.00 g/10 g body weight); assay type: organism-based; set-up: dose 60 mg/kg, route oral; settings: in vivo, 168 h
Mus musculus [34] = experiment: Toxicity in Swiss mouse assessed as total leukocytes level at 60 mg/kg, po dosed once daily for 7 days (reference value: 5.9 +/- 0.8 10^3/mL); assay type: organism-based; set-up: dose 60 mg/kg, route oral; settings: in vivo, 168 h
Mus musculus [35] = experiment: Toxicity in Swiss mouse assessed as creatinine level at 60 mg/kg, po dosed once daily for 7 days (reference value: 0.26 +/- 0.05 mg/dL); assay type: organism-based; set-up: dose 60 mg/kg, route oral; settings: in vivo, 168 h
Mus musculus [36] = experiment: Toxicity in Swiss mouse assessed as ALT level at 60 mg/kg, po dosed once daily for 7 days (reference value: 68.0 +/- 12.8 UI/L); assay type: organism-based; set-up: dose 60 mg/kg, route oral; settings: in vivo, 168 h
Mus musculus [37] = experiment: Toxicity in Swiss mouse assessed as AST level at 60 mg/kg, po dosed once daily for 7 days (reference value: 145.7 +/- 23.4 UI/L); assay type: organism-based; set-up: dose 60 mg/kg, route oral; settings: in vivo, 168 h
Mus musculus [38] = experiment: Gastric toxicity in Swiss mouse assessed as inflammatory cell index at 60 mg/kg administered daily with single dose (reference value: 0.2 +/- 0.2 inflammatory cell index); assay type: organism-based; set-up: dose 60 mg/kg; settings: in vivo
Mus musculus [39] = experiment: Gastric toxicity in Swiss mouse assessed as erosion index at 60 mg/kg administered daily with single dose (reference value: 0 +/- 0 erosion index); assay type: organism-based; set-up: dose 60 mg/kg; settings: in vivo
Mus musculus [40] = experiment: Gastric toxicity in Swiss mouse assessed as edema index at 60 mg/kg administered daily with single dose (reference value: 0.6 +/- 0.2 edema index); assay type: organism-based; set-up: dose 60 mg/kg; settings: in vivo
Mus musculus [41] = experiment: Gastric toxicity in Swiss mouse assessed as necrosis index at 60 mg/kg administered daily with single dose (reference value: 0 +/- 0 necrosis index); assay type: organism-based; set-up: dose 60 mg/kg; settings: in vivo

Structure (SMILES): CS(=O)(=O)Nc1ccc([N+](=O)[O-])cc1Oc1ccccc1
- inhibition (Mus musculus [1]): Active

Structure (SMILES): C[C@@H]1C[C@H]2[C@@H]3CCC4=CC(=O)C=C[C@]4(C)[C@@]3(F)[C@@H](O)C[C@]2(C)[C@@]1(O)C(=O)CO
- Activity (Mus musculus [2]): Active
- Activity (Mus musculus [3]): Active
- Activity (Mus musculus [4]): Active
- Activity (Mus musculus [5]): Active
- inhibition (Mus musculus [6]): Active
- inhibition (Mus musculus [7]): Active
- inhibition (Mus musculus [8]): Active
- inhibition (Mus musculus [9]): Active

Structure (SMILES): Cc1c(N(C)CS(=O)(=O)O)c(=O)n(-c2ccccc2)n1C
- Activity (Mus musculus [10]): Active

Structure (SMILES): COc1ccc2c(c1)c(CC(=O)O)c(C)n2C(=O)c1ccc(Cl)cc1 [INDOMETHACIN]
- Activity (Mus musculus [11]): 4
- Activity (Mus musculus [12]): 3
- Activity (Mus musculus [13]): 2.6
- Activity (Mus musculus [14]): 0

Structure (SMILES): O=c1ccc2ccc(O)cc2o1 [UMBELLIFERONE]
- Activity (Mus musculus [15]): inactive
- Activity (Mus musculus [16]): Dose-dependent effect
- Activity (Mus musculus [17]): Dose-dependent effect
- Activity (Mus musculus [18]): Dose-dependent effect
- Activity (Mus musculus [19]): Active
- Activity (Mus musculus [20]): inactive
- Activity (Mus musculus [21]): Active
- Activity (Mus musculus [22]): Active
- Activity (Mus musculus [23]): inactive
- Activity (Mus musculus [24]): inactive
- inhibition (Mus musculus [25]): Active
- inhibition (Mus musculus [26]): Active
- inhibition (Mus musculus [27]): Active
- inhibition (Mus musculus [28]): Active
- inhibition (Mus musculus [29]): Active
- Activity (Mus musculus [30]): 0.6 g
- Activity (Mus musculus [31]): 0.72 g
- Activity (Mus musculus [32]): 0.07 g
- Activity (Mus musculus [33]): 0.05 g
- Activity (Mus musculus [34]): 6.725 ×10³ /ml
- Activity (Mus musculus [35]): 0.27 mg/dL
- Activity (Mus musculus [36]): 51 IU/L
- Activity (Mus musculus [37]): 115 IU/L
- Activity (Mus musculus [38]): 0.4
- Activity (Mus musculus [39]): 0
- Activity (Mus musculus [40]): 0.7
- Activity (Mus musculus [41]): 0

Source: ChEMBL document CHEMBL2146469, “Mechanisms involved in the antinociceptive effects of 7-hydroxycoumarin” (J Nat Prod, 2011)
